Measurements reported in US20210290676A1, “IMPROVING THE EFFICACY AND SAFETY OF ADOPTIVE CELLULAR THERAPIES” (University of Southern California, priority 2018, published 2021).

How the values were obtained:
Type in all cases: cell-based, human
[1] = system: CD45RA+CCR7+CD62L+ T cells; experiment: Flow cytometry for CD45RA, CCR7 and CD62L on inhibitor-treated T cells (all T cells); details: cells cultured for 14 days
Description: (§1) DAY 0: Blood was obtained from unidentified donor. After RBC lysis, PBMC were collected using Ficoll-Hypaque separation. […] T cells were cultured in three different conditions: • 1. XVIVO 15 medium (Lonza) with IL2 50 IU/ml, CD3 antibody (30 ng/ml) and CD28 antibody (30 ng/ml). • 2. XVIVO 15 medium (Lonza) with CD3 antibody (30 ng/ml) and CD28 antibody (30 ng/ml). • 3. XVIVO 15 medium (Lonza) with IL2 50 IU/ml DAY 1: Cells were plated in a 6-well plate at a density of 1 million cells in 2 ml/of media (as described above) and treated with different inhibitors
(§2) A second aliquot of the cells cultured for 13 days with all the treatments listed above (1-21) was washed with PBS+1% FBS, stained with CD8-PerCP, CD45RA-FITC, CCR7-PE and CD62L-APC (5% Y/100 μl/sample for each of 4 antibodies) at 4° C. for 1 h, washed twice with PBS+100 FBS and analyzed on flow cytometer to check if these drugs are enriching T stem cells showing surface expression of CD8+CD45RA+CCR7+CD62L+.
(§3) Day 0: Blood was obtained from unidentified donor. After RBC lysis, PBMC were collected using Ficoll-Hypaque separation. 200 million T cells were isolated from PBMCs using CD3 microbeads. T cells were cultured overnight in XVIVO 15 medium (Lonza) with IL2 (50 IU/ml), 30 ng/ml of CD3 and CD28 antibodies
(§4) Day 1: Cells were plated in 24-well plates at a density of 0.3 million cells/ml in each well and treated with different drugs.
(§5) On day 7, culture medium was replaced with fresh medium with fresh drugs.
(§6) On day 13, culture medium was replaced with fresh medium and fresh drugs. Half of the cells were transferred to 6-well plates.
as §2, with “14” for “13”, “above” for “above (1-21)”, “(5 ul/100 ul/sample” for “(5% Y/100 μl/sample”, “PBS+1%” for “PBS+100”, “enriching for” for “enriching”, “T” for “T stem”

[2] = system: CD8+CD45RA+CCR7+CD62L+ T cells; experiment: Flow cytometry for CD8, CD45RA, CCR7 and CD62L on inhibitor-treated T cells; details: cells cultured for 14 days
Description: as §1, §2, §3, §4, §5, §6
as §2, with “14” for “13”, “above” for “above (1-21)”, “(5 ul/100 ul/sample” for “(5% Y/100 μl/sample”, “PBS+1%” for “PBS+100”, “enriching for” for “enriching”, “T” for “T stem”

[3] = system: Pgp+ (DiOC2(3)-dye effluxing) T cells; experiment: DiOC2(3) dye efflux flow cytometry of inhibitor-treated T cells; details: treatment for 13 days, IL2 + CD3 and CD28 antibodies
Description: (§7) The use of P-glycoprotein (Pgp)-mediated efflux of DiOC2(3) to isolate stem like T cells for adoptive cellular therapy has been described in application no. […] In the following examples, DiOC2(3) staining was used to study the effect of different inhibitors on generation of stem like T cells.
as §1
(§8) The cell growth medium was changed in 6-well plates and fresh drugs were added at same concentration for one more week.
(§9) […] (DAY 11): Culture medium was changed and fresh drugs were added in 6-well plates.
(§10) Subsequently, cells were washed with RPMI medium and dye was effluxed at 37° C. for 90 min. Cells were washed with […], stained with CD62L-APC (5 μl/100 μl/sample) at 4° C. for 1 h, washed twice with PBS+1% FBS and analyzed on flow cytometer to check if these drugs treatment leads to increase in Pgp+/CD62L positive population.
as §3, §4, §5, §6
(§11) Day 14: An aliquot of cells with all the treatments listed above (for 13 days) was used to stain the cells with DiOC2(3) (60 ng/ml in RPMI medium) at 4° C. for 40 min, washed with RPMI medium, DiOC2(3) dye was effluxed at 37° C. for 90 min, washed with PBS+1% FBS, stained with CD62L-APC antibody. CD62L is a marker for resting T cells. (5 μl/100 μl/sample) at 4° C. for 1 h, washed twice with PBS+1% FBS and analyzed on flow cytometer to check if these drugs are affecting the dye-effluxing or Pgp+ (i.e., DiOC2(3)-dull) T-cell population.

[4] = system: Pgp+ (DiOC2(3)-dye effluxing cells) and CD62L+ T cells; experiment: DiOC2(3) dye efflux plus CD62L-APC staining, flow cytometry of inhibitor-treated T cells; details: treatment for 13 days, IL2 + CD3 and CD28 antibodies
Description: as §7, §1, §8, §9, §10, §3, §4, §5, §6, §11

Compound | GATE P6 CD45RA(FITC)+, CCR7 (PE)+, CD62L(APC) ([1]; 100 nM) | GATE P4 CD8(PerCP)+, CD45RA(FITC)+, CCR7 (PE)+, CD62L(APC) ([2]; 100 nM) | p2: pgp+ from Live cells ([3]; 100 nM) | p5: double +ve pgp+ and CD62L-APC+ from Live cells ([4]; 100 nM) | GATE P6 CD45RA(FITC)+, CCR7 (PE)+, CD62L(APC) ([1]; 500 nM) | GATE P4 CD8(PerCP)+, CD45RA(FITC)+, CCR7 (PE)+, CD62L(APC) ([2]; 500 nM) | p2: pgp+ from Live cells ([3]; 500 nM) | p5: double +ve pgp+ and CD62L-APC+ from Live cells ([4]; 500 nM) | GATE P6 CD45RA(FITC)+, CCR7 (PE)+, CD62L(APC) ([1]; 1 μM) | GATE P4 CD8(PerCP)+, CD45RA(FITC)+, CCR7 (PE)+, CD62L(APC) ([2]; 1 μM) | p2: pgp+ from Live cells ([3]; 1 μM) | p5: double +ve pgp+ and CD62L-APC+ from Live cells ([4]; 1 μM) | p2: pgp+ from Live cells ([3]; 500 (unit not given)) | p5: double +ve pgp+ and CD62L-APC+ from Live cells ([4]; 500 (unit not given)) | GATE P6 CD45RA(FITC)+, CCR7 (PE)+, CD62L(APC) ([1]; 10 nM) | GATE P4 CD8(PerCP)+, CD45RA(FITC)+, CCR7 (PE)+, CD62L(APC) ([2]; 10 nM) | p2: pgp+ from Live cells ([3]; 10 nM) | p5: double +ve pgp+ and CD62L-APC+ from Live cells ([4]; 10 nM)
CCN(c1cc(-c2ccc(CN3CCOCC3)cc2)cc(C(=O)NCc2c(C)cc(C)[nH]c2=O)c1C)C1CCOCC1 [TAZE] | 52.24% | 59.72% | 42.9 | 14.5 |  |  |  |  |  |  |  |  |  |  |  |  |  | 
CC[C@H](C)n1cc(C)c2c(C(=O)NCc3c(C)cc(C)[nH]c3=O)cc(-c3ccc(N4CCNCC4)nc3)cc21 [GSK126] | 67.75% | 76.44% | 36.37 | 8.83 | 67.65% | 79.6% | 26.61 | 8.08 |  |  |  |  |  |  |  |  |  | 
CCN(c1cc(C#CCN2CCOCC2)cc(C(=O)NCc2c(C)cc(C)[nH]c2=O)c1C)[C@H]1CC[C@H](N(C)CCOC)CC1 [EPZ011989] |  |  |  |  | 57.62% | 70.63% | 64.39 | 18.77 | 58.31% | 72.83% | 62.54 | 16.8 |  |  |  |  |  | 
COc1cc(C)[nH]c(=O)c1CNC(=O)c1c(C)n([C@H](C)C2CCOCC2)c2ccccc12 [CPI360] | 70.85% | 81.01% | 25.15 | 5.82 | 69.62% | 81.26% |  |  |  |  |  |  | 35.55 | 11.11 |  |  |  | 
COc1cc2c(NC3CCN(C(C)C)CC3)nc(N3CCC(F)(F)CC3)nc2cc1OCCCN1CCCC1 [UNC0642] | 75.75% | 82.37% | 32.51 | 4.81 |  |  |  |  |  |  |  |  |  |  | 63.95% | 71.62% | 22.03 | 4.46
BI7273 | 57.15% | 70.33% | 16.69 | 2.73 | 61.86% | 77.81% | 16.34 | 2.38 |  |  |  |  |  |  |  |  |  | 
Cc1ccc(Cl)c(Nc2ccccc2C(=O)O)c1Cl [MECLO] | 53.02% | 57.65% | 22.22 | 3.74 | 66.64% | 75.78% | 20.11 | 3.72 |  |  |  |  |  |  |  |  |  | 
